# Reference: patent US9060966B2, “Use of 2,5-dihydroxybenzene derivatives for the treatment of arthritis and pain” (priority 2006, dated 2015)
# Entries after “also recorded” stand apart in the source; their conditions may differ.
# How the values were obtained:
# [1] = tested on: intestinal inflammatory disease (IID) induced by DSS; test: Intestinal inflammatory disease induced by dextran sulfate sodium in mice; assay type: in vivo; conditions: for disease clinical score (0 to 6 scale): first two DSS cycles
# Experimental: (§1) The mice were subject to two 7-day cycles of exposure to dextran sulfate sodium (DSS) (from day 1 to 7 and from day 14 to 21) in the drinking water separated by 7 days in which regular water was provided (from 7 to 14). One group was treated with vehicle (0.9% NaCl), another with Solu-Medrol (10 mg/kg/day i.m.), and the other two groups with potassium 2,5-diacetoxybenzene sulfonate (DABS), one of them with 100 mg/kg/day i.p. and the other with 125 mg/kg/day, orally (p.o.). The body weight was normalized on day 0. Data are expressed as the mean±SD of the percentage of the basal weight (day 0) of 10 mice per group.
# as §1, with “(p.o.)” for “(p.o.). The body weight was normalized on day 0.”, “clinical score” for “percentage”, “disease continuously obtained from” for “basal weight (day 0) of”, “per each” for “per”
# The induction of the intestinal inflammatory disease described below is a representative model for the evaluation of therapeutic strategies to treat Crohn's disease and ulcerative colitis. 7-8 week old female mice of strain C57BL/6J-664 were used. The intestinal inflammatory disease (IID) was induced by feeding the mice with 3% dextran sulfate sodium (DSS; MW 40,000) dissolved in drinking water in 2 cycles. Each cycle consisted of 7 days with 3% DSS in the drinking water separated by 7 days with regular water. A daily clinical evaluation of the animals was performed in which the body weight, the consistency of the faeces and the presence of blood in the faeces were determined. Thus, the validated score of the clinical activity of the disease was evaluated with a 0 to 6 scale, considering the following parameters: consistency of the faeces, presence or absence of fecal blood and loss of weight.
# At the end of the first cycle of exposure to DSS, the mice were divided into the following treatment groups: a first group was administered intraperitoneal (i.p) injections of vehicle (0.9% NaCl). Another group received intramuscular injections of Solu-Medrol, a standard IID treatment, at a dose of 10 mg/kg/day. A third group was administered i.p. injections of potassium 2,5-diacetroxybenzene sulfonate (DABS, 100 mg/kg/day). The last group was treated orally with 125 mg/kg day of DABS.
# [2] = tested on: angiogenesis induced by Helicobacter pylori in the human gastric mucosa; test: Angiogenesis induced by Helicobacter pylori in the human gastric mucosa (biopsies); assay type: in vivo; conditions: 500 mg/day oral, one week, one patient
# Experimental: FIG. 5. Helicobacter pylori • A) Hematoxylin-eosin staining of the gastric mucosa of a sample obtained from a patient infected with Helicobacter pylori before treatment. The arrows and the asterisk indicate the formation of neovessels in the mucosa protruding the gastric lumen through the lost epithelial layer. • B) Hematoxylin-eosin staining of the gastric mucosa of a sample obtained from the same patient infected with Helicobacter pylori after administering 500 mg of 2,5-dihydroxybenzenesulfonate (DHBS) daily for a week.
# A biopsy of the gastric mucosa was performed in a patient chronically infected with Helicobacter pylori before the oral treatment with 2,5-dihydroxybenzene sulfonic acid (Dobesilate) (500 mg/day). After a week of treatment, another biopsy was performed in the patient. Both biopsies were evaluated using hematoxylin-eosin staining. […] Microscopically, the arrows and the asterisk indicate the formation of neovessels in the mucosa protruding the gastric lumen through the lost epithelial layer. […] This example illustrates that the use of DHBS is beneficial in the treatment of gastritis and angiogenesis caused by the infection with Helicobacter pylori.
# infantile hemangioma = test: Topical treatment of infantile hemangioma in a child; assay type: in vivo, human; conditions: cream 2.5%, topical twice a day, 1, 2 and 3 months, one child
# Description: Photographs of a child showing the effects of the topical treatment with a cream comprising 2,5-dihydroxybenzenesulfonic (DHBS) (2.5%) in a baby suffering infantile hemangioma.
# The cream comprising 2,5-dihydroxybenzene sulfonic (2.5%) was topically applied twice a day for 3 months on the face of a child suffering from infantile hemangioma.
Compound,disease clinical score (0 to 6 scale) ([1]; 100 mg/kg/day i.p.),disease clinical score (0 to 6 scale) ([1]; 125 mg/kg/day oral),"loss of weight produced by the two cycles of exposure to DSS ([1]; DABS 100 mg/kg/day i.p. or 125 mg/kg/day p.o., routes not distinguished)","efficacy compared with the standard treatment Solu-Medrol ([1]; body weight and clinical score, Solu-Medrol 10 mg/kg/day i.m.)",angiogenic activity in the gastric mucosa [2],"appearance of gastric mucosa / epithelial membrane, hematoxylin-eosin [2]",symptoms of congestion and erythema of the gastric mucosa [2],hemangioma lesion appearance (infantile hemangioma)
"CC(=O)Oc1ccc(OC(C)=O)c(S(=O)(=O)[O-])c1.[K+] [DABS, potassium 2,5-diacetoxybenzene sulfonate]",reduced,reduced,reduced,not lower (in some points it is higher),–,–,–,–
"O=S(=O)(O)c1cc(O)ccc1O [DHBS, 2,5-dihydroxybenzenesulfonic acid]",–,–,–,–,less angiogenic activity,apparently normal; also recorded: normal appearance,the symptoms of congestion and erythema disappear,substantial recovery of the lesion
